Consider four compounds from ChEMBL document CHEMBL5236581, “A Versatile and Sustainable Multicomponent Platform for the Synthesis of Protein Degraders: Proof-of-Concept Application to BRD4-Degrading PROTACs” (J Med Chem, 2022).

The nature of data set [1]: Thermodynamic solubility of compound in phosphate buffer at pH 7.4 incubated for 2 hrs with shaking by LC-UV analysis. The format is physicochemical. The conditions noted are these: read-out: Therm_solubility.
Data set [2] is described as follows: Thermodynamic solubility of compound in HCL at pH 2 incubated for 2 hrs with shaking by LC-UV analysis. The format is physicochemical. The note with it: read-out: Therm_solubility.
The target of data set [3] is von Hippel-Lindau disease tumor suppressor/Bromodomain-containing protein 4 (Homo sapiens) (UniProt O60885+P40337). Nature of the data set: Protac activity at BRD4/VHL E3 ligase in human MDA-MB-231 cells assessed as decrease in BRD4 expression at 1 uM incubated for 4 to 24 hrs by Western blot analysis. It counts as cell-based. The conditions noted are these: time lower 4.0 hrs, time upper […]. On the technique in general: Immunoblotting shows a protein as a band on a membrane.

Values after ≈ are worked out from the molar mass of the structure shown. Active and inactive are the calls of the source. The rule behind the calls is not given here. Where a SMILES comes first, the peptide text is derived from it. [ ]: non-standard residue; d: D form. The star is where a group is joined. JQ1acid = Cc1sc2c(c1C)C(c1ccc(Cl)cc1)=N[C@@H](CC(=O)*)c1nnc(C)n1-2; NHBn(4-(4-Me-thiazol-5-yl)) = Cc1ncsc1-c1ccc(CN*)cc1; Hyp = O=C(O)[C@@H]1C[C@@H](O)CN1; Tle = CC(C)(C)[C@H](N)C(=O)O; Sar = CNCC(=O)O

von Hippel-Lindau disease tumor suppressor/Bromodomain-containing protein 4 (Homo sapiens), sequence (P40337 whole entry, looked up, other chains not shown): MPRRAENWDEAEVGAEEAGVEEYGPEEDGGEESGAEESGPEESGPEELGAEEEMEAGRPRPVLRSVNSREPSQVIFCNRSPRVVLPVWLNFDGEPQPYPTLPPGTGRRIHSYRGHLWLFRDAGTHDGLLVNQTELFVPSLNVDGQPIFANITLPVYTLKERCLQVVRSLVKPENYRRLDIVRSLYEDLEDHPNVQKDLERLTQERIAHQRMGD

With `Cc1sc2c(c1C)C(c1ccc(Cl)cc1)=N[C@@H](CC(=O)NCCCCNC(=O)COc1cccc3c1C(=O)N(C1CCC(=O)NC1=O)C3=O)c1nnc(C)n1-2` (stereo not given in full), the solubility thermodynamic at 2 h in data set [1] was 60 µM (≈ 47.1 µg/mL); in data set [2], 171 µM (≈ 134 µg/mL).

For the compound `Cc1ncsc1-c1ccc(CNC(=O)[C@@H]2C[C@@H](O)CN2C(=O)[C@@H](NC(=O)CCCNC(=O)CN2CCN(C(=O)C[C@@H]3N=C(c4ccc(Cl)cc4)c4c(sc(C)c4C)-n4c(C)nnc43)CC2)C(C)(C)C)cc1`, in data set [3], the result was inactive.

Turning to `Cc1ncsc1-c1ccc(CNC(=O)[C@@H]2C[C@@H](O)CN2C(=O)[C@@H](NC(=O)CNC(=O)CN2CCN(C(=O)C[C@@H]3N=C(c4ccc(Cl)cc4)c4c(sc(C)c4C)-n4c(C)nnc43)CC2)C(C)(C)C)cc1`, the outcome in data set [3] was inactive.

With `Cc1ncsc1-c1ccc(CNC(=O)[C@@H]2C[C@@H](O)CN2C(=O)[C@@H](NC(=O)CNC(=O)CN(C)C(=O)C[C@@H]2N=C(c3ccc(Cl)cc3)c3c(sc(C)c3C)-n3c(C)nnc32)C(C)(C)C)cc1` (JQ1acid-[Sar]G[Tle][Hyp]-{NHBn(4-(4-Me-thiazol-5-yl))}), the outcome in data set [3] was inactive.
